{
  "source": "patent US20050032866A1",
  "about": "“The use of 5ht4 receptor antagonists in the prophylaxis or treatment of certain cardiovascular conditions” (priority 2000, published 2005)",
  "key": {"[1]": {"system": "5-HT-induced atrial arrhythmia in anesthetized Yucatan minipigs", "experiment": "5-HT-induced atrial fibrillation / atrial remodelling after rapid atrial pacing in anesthetized Yucatan minipigs", "type": "in vivo, Yucatan minipig", "settings": "for AERP (Example 2): sensitized pigs, predrug 90±3; for AF inducibility: 64±6% prior to treatment, 10 bursts of pacing; for mean duration of AF episodes: pre-drug 1.9±0.4", "protocol": "The antiarrhythmic efficacy of SB-207266 (0.3 and 1.0 mg/kg, intravenous) was evaluated on the inducibility of AF in a model of 5-HT-induced atrial arrhythmia in anesthetized Yucatan minipigs. […] The atrial effective refractory period (AERP) and AF inducibility were determined during programmed stimulation and burst electrical pacing.\nAnimals. Male Yucatan minipigs (12-17 kg weight) were obtained from Charles River (Saint-Aubin les Elboeuf, France) and were maintained at rest over a 2-week acclimatision period prior to experiments.\nSurgical Preparation of Animals. The minipigs (Charles River, France) were fasted and premedicated (2 mg/kg diazepam+15 mg/kg ketamine, i.m.) before induction of anesthesia by isoflurane inhalation (5% for induction followed by 0.5 to 1.5% for technical preparation) in a mixture of 25% O2 and 75% N2O. The long term anesthesia was maintained with an i.v. infusion of sodium pentobarbital (12 mg/kg/h). A mechanical ventilator (Harvard pump 613) was used to provide artificial respiration during the left thoracotomy in order to keep arterial blood gases and pH within the normal limits (ABL 500 analyzer). Fluid filled catheters were placed in the femoral artery and vein to measure the arterial pressure (P23 ID transducer) and for drug administrations, respectively. Leads II, III and a precordial lead of electrocardiogram were placed for monitoring of standard ECG parameters. Two pairs of electrodes were hooked to the left atrial wall for subsequent stimulation (S8800 stimulator and SIU-5 unit) and for measurement of an atrial electrogram.\nSensitization of the Atrial Tissue. The left atrial appendage was sensitized by rapid atrial pacing (200 ms cycle length over 3 hours) to generate an initial electrical remodelling of the tissue [A. Goette et al., 1996, Circulation, 94, 2968-2974]. […] The cellulose patch retains the 5-HT in contact with the tissue.\nElectrophysiologic Study. The atrial effective refractory period (AERP) was determined using a conventional single extrastimulus technique as previously described [A. Bril, B. Gout et al., J. Pharmacol. Exp. Ther., 1996, 276, 637-646.]. Briefly, a 8-stimulus train at a basic cycle length 20% shorter than the sinus rhythm was followed by a single premature extrastimulus (4 ms, 1.5 times threshold current) introduced at progressively shorter coupling intervals from the atrial pacing until no atrial response was obtained.\nAfter determination of AERP, the atrial fibrillation (AF) challenge was started. AF was induced following atrial pacing by a 2 sec-burst of stimulation (basic cycle length 20 ms cycle length, 2 ms duration, twice the diastolic threshold) introduced within the vulnerable window (AERP+10 ms). AF was defined as at least 1 sec of irregular electrical activity measured on atrial electrogram.\nStudy Design and Dosing. After assessment of reproducible baseline responses of animals (3 successive AF challenges), the minipigs were randomly assigned to receive either sterile distilled water (vehicle group, n=7), or escalating doses of SB-207266 (0.3 and 1.0 mg/kg, n=7) given i.v. over a 10 min period 15 min before determination of AERP and subsequent AF challenge. SB-207266 was dissolved in sterile distilled water and adequate drug solutions were prepared every day. Treatment with vehicle represented a volume of distilled water similar to that used for drug solution (10 ml). Each dose of SB-207266 was administered at 45 min intervals to allow recovery of animals from previous burst pacing challenge.\nMeasurements and Calculations. All parameters were monitored on a chart paper polyrecorder (TA-5000) and digital recording was performed throughout the protocol (DTR 1800). When measured, heart rate was calculated from the ECG and the mean arterial blood pressure was calculated from the pulse pressure. A corrected QT was determined according to the Bazett's formula (QTc=QT (ms)/RR (sec)^1/2). […]"}, "[2]": {"system": "5-HT-induced atrial arrhythmia in anesthetized Yucatan minipigs", "experiment": "5-HT-induced atrial fibrillation / atrial remodelling after rapid atrial pacing in anesthetized Yucatan minipigs", "type": "in vivo, Yucatan minipig", "settings": "5-HT alone, topical application for 3 hours, no pacing; control 110.2±1.9; not significant; n=6"}, "5-HT3A receptors": {"target": "5-HT3A receptors (Homo sapiens, UniProt P46098)", "sequence (P46098 24-478)": "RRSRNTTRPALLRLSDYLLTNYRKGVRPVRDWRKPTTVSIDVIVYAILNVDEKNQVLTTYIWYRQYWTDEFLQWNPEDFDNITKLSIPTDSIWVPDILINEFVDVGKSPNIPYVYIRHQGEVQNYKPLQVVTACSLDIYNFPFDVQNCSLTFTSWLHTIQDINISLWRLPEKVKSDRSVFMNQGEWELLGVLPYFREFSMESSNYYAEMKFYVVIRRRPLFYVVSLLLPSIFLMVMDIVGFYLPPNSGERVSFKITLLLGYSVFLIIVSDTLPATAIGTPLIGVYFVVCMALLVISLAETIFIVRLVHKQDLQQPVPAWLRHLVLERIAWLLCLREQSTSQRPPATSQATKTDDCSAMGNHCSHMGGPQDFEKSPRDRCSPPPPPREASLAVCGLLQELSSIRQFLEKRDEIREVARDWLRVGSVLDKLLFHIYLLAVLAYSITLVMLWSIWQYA", "settings": "cited from earlier work"}, "5-HT4A receptors": {"target": "5-HT4A receptors (Homo sapiens, UniProt Q13639)", "sequence (Q13639 1-387 isoform Q13639-2)": "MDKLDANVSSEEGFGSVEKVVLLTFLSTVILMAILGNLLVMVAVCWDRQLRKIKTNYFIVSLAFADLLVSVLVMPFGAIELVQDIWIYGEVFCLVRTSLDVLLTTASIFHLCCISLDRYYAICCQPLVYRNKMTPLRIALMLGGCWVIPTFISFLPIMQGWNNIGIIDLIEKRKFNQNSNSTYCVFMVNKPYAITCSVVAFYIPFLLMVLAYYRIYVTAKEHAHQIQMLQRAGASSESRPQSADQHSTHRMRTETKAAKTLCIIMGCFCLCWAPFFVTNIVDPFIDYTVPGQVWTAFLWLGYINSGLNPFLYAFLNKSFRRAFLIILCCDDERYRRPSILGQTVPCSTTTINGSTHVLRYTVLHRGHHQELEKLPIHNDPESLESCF", "settings": "cited from earlier work"}, "5-HT4 receptor": {"target": "T1, 5-HT4 receptor (Cavia porcellus, UniProt O70528)", "T1 construct": "Longitudinal muscle-myenteric plexus preparations, approximately 3 cm long, are obtained from the distal colon region; from tissue; host or cells: guinea-pig distal colon longitudinal muscle-myenteric plexus", "T1 sequence (O70528 whole entry)": "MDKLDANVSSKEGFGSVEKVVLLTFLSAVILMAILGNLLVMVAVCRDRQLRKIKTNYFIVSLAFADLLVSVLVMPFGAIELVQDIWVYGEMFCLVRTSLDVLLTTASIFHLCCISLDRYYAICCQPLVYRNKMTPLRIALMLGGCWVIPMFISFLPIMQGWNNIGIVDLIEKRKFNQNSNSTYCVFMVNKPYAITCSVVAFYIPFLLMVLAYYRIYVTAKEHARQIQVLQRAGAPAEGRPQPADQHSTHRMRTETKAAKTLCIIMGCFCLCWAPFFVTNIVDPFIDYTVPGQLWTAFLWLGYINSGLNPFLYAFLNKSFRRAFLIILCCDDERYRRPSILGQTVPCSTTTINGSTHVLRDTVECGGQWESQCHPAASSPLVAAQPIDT", "experiment": "guinea pig distal colon longitudinal muscle-myenteric plexus, 5-HT-evoked contraction", "type": "cell-based", "protocol": "Male guinea-pigs, weighing 250-400 g are used.\nIn some experiments, this tissue was dosed alternately with an approximately equi-effective concentration of the nicotine receptor stimulant, dimethylphenylpiperazinium (DMPP)."}, "[3]": {"experiment": "preliminary studies of side-effects at human daily oral doses", "type": "in vivo", "settings": "corresponds to about 1.6 to 1.7 mg/kg/day or more"}, "[4]": {"experiment": "plasma pharmacokinetics of SB 207266 on once daily oral dosing", "type": "in vivo, human"}, "5-HT4B receptor": {"target": "5-HT4B receptor (Homo sapiens, UniProt Q13639)", "sequence (Q13639 whole entry)": "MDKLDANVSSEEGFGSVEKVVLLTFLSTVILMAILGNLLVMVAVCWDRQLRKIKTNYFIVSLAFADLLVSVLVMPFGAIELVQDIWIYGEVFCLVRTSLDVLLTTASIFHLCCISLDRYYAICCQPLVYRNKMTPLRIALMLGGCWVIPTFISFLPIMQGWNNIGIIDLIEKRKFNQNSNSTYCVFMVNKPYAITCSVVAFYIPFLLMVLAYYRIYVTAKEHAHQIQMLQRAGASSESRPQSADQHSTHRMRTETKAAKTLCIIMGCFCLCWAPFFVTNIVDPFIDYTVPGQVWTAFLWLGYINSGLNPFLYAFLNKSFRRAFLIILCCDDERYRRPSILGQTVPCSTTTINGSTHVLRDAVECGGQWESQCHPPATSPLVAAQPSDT", "experiment": "5-HT4B receptor antagonism", "type": "biochemical"}, "[5]": {"experiment": "plasma concentration of SB-207266 in minipig (LC/MS/MS)", "type": "in vivo, Yucatan minipig", "settings": "5 min after end of bolus", "protocol": "Evaluation of Plasma Concentration of SB-207266. For each AF challenge, blood samples were collected on EDTA (6%) 5 min after the end of the bolus administration of drug (time point 15 min, see asterisks in FIG. 4A) and centrifuged (1500×g, 10 min at 4° C.). The plasma samples were stored at −80° C. for subsequent analysis. Plasma samples were not collected in the vehicle group. The determination of plasma concentration of SB-207266 was performed by LC/MS/MS with a LLQ for this assay of 5 ng/ml in the pig."}, "5-HT1A": {"target": "5-HT1A (Homo sapiens, UniProt P08908)", "sequence (P08908 whole entry, species assumed)": "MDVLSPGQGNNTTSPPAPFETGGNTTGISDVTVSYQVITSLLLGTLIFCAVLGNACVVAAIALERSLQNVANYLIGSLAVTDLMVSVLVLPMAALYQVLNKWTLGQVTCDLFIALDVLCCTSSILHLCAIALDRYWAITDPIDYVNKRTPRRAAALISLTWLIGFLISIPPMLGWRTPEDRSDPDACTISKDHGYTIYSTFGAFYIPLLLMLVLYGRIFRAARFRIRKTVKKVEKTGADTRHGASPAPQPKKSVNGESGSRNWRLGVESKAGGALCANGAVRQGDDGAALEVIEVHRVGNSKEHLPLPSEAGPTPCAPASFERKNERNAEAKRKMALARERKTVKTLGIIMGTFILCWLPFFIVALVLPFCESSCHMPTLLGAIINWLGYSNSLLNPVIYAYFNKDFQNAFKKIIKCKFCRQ", "experiment": "radioligand selectivity, 5-HT1A receptors", "type": "binding", "settings": "read-out: pKi at 5-HT1A (converted)"}, "[6]": {"target": "piglet hippocampal 5-HT4 receptors (Sus scrofa, UniProt Q6Q253)", "sequence (Q6Q253 1-402)": "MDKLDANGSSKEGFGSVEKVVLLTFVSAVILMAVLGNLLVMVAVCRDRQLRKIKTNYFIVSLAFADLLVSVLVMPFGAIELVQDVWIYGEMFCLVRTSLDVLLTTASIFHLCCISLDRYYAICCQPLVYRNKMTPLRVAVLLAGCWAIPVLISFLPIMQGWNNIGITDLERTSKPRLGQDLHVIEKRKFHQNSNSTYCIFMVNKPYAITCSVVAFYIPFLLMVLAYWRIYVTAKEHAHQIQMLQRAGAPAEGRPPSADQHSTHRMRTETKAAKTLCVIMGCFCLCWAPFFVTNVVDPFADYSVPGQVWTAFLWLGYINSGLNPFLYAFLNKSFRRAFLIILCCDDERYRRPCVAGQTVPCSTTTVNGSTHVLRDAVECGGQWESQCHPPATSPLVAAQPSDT", "experiment": "binding to piglet hippocampal 5-HT4 receptors, 125I-labelled SB-207710", "settings": "piglet hippocampal membranes, n=4"}, "5-HT1C": {"target": "5-HT1C (Homo sapiens, UniProt P28335)", "sequence (P28335 33-458, species assumed)": "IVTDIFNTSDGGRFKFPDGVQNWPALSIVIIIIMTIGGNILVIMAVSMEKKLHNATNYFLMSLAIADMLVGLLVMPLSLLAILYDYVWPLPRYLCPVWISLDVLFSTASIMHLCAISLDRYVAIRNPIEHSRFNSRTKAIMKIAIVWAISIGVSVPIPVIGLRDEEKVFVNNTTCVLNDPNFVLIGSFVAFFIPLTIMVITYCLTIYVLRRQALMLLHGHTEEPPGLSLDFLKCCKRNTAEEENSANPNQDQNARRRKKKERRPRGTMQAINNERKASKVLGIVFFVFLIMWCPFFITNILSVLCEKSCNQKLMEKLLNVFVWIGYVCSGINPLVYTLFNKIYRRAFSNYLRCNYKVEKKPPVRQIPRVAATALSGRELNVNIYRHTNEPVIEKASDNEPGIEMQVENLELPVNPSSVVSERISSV", "experiment": "radioligand selectivity, 5-HT1C receptors", "type": "binding", "settings": "read-out: pKi at 5-HT1C (converted)"}},
  "note": "“And” between values parts separate entries of the source, which are not always exact repeats. Equal values may be shown once.",
  "data": [
    {"smiles": "NCCc1c[nH]c2ccc(O)cc12", "note": "[5-HT, reference compound]", "values": [
      {"measurement": "AERP", "setting": "[1]; 5-HT applied after 3 h rapid atrial pacing, pacing alone 93.6±3.6", "result": "91.8 ± 3.3", "unit": "ms"},
      {"measurement": "AERP (Example 1)", "setting": "[1]; rapid atrial pacing and application of 5-HT, before vehicle or drug, from 111.6±2.6", "result": "90.9 ± 2.1", "unit": "ms"},
      {"measurement": "AERP", "setting": "[2]", "result": "104.0 ± 6.5", "unit": "ms"}
    ]},
    {"smiles": "COc1[nH]c2ccc(F)cc2c1C(=O)OCC1CCN(CCNS(C)(=O)=O)CC1", "note": "[GR 125487, [1-[2-[(Methylsulphonyl)amino]ethyl]-4-piperidinyl]methyl 5-fluoro-2-methoxy-1H-indole-3-carboxylate]", "values": [
      {"measurement": "pKi at 5-HT3A receptors", "setting": "5-HT3A receptors", "result": "< 6.5"},
      {"measurement": "pKi at 5-HT4A receptors", "setting": "5-HT4A receptors", "result": 10.0}
    ]},
    {"smiles": "Cc1noc(-c2ccccc2NC(=O)OCC2CCN(CCNS(C)(=O)=O)CC2)n1", "note": "[GR 138897, [1-[2-[(Methylsulphonyl)amino]ethyl]-4-piperidinyl]methyl[2-(3-methyl-1,2,4-oxadiazol-5-yl)phenyl]carbamate]", "values": [
      {"measurement": "pKi at 5-HT3A receptors", "setting": "5-HT3A receptors", "result": "< 5.0"},
      {"measurement": "pKi at 5-HT4A receptors", "setting": "5-HT4A receptors", "result": 10.3}
    ]},
    {"smiles": "CCCCN1CCC(CNC(=O)c2c3n(c4ccccc24)CCCO3)CC1", "note": "[SB 207266, N-[(1-^nbutyl-4-piperidinyl)methyl]-3,4-dihydro-2H-[1,3]oxazino[3,2-a]indole-10-carboxamide]", "values": [
      {"measurement": "5-HT4 receptor antagonist activity in guinea pig colon", "setting": "5-HT4 receptor", "result": "particularly good activity"},
      {"measurement": "AERP (Example 1)", "setting": "[1]; 0.3 mg/kg i.v., after pacing and 5-HT, pre-drug 90.0±2.7, p<0.01 vs vehicle", "result": "102.3 ± 2.7", "unit": "ms"},
      {"measurement": "AERP (Example 2)", "setting": "[1]; 0.3 mg/kg i.v.", "result": "102 ± 3", "unit": "ms"},
      {"measurement": "AF inducibility", "setting": "[1]; 0.3 mg/kg i.v.", "result": "46±11", "unit": "%"},
      {"measurement": "mean duration of AF episodes", "setting": "[1]; 0.3 mg/kg i.v.", "result": "1.1 ± 0.4 s and 1.1 ± 0.2 s"},
      {"measurement": "decrease in AERP caused by rapid atrial pacing plus 5-HT application", "setting": "[1]; 1.0 mg/kg i.v.", "result": "fully restored"},
      {"measurement": "AERP (Example 1)", "setting": "[1]; 1.0 mg/kg i.v., after pacing and 5-HT, pre-drug 90.0±2.7, p<0.01 vs vehicle", "result": "110.0 ± 3.6", "unit": "ms"},
      {"measurement": "AERP (Example 2)", "setting": "[1]; 1.0 mg/kg i.v.", "result": "110 ± 4", "unit": "ms"},
      {"measurement": "AF inducibility", "setting": "[1]; 1.0 mg/kg i.v.", "result": "30±9", "unit": "%"},
      {"measurement": "mean duration of AF episodes", "setting": "[1]; 1.0 mg/kg i.v.", "result": "No further reduction"},
      {"measurement": "human daily oral dose that might give rise to certain side-effects", "setting": "[3]", "result": "≥ 120", "unit": "mg"},
      {"measurement": "half-life", "setting": "[4]; human, plasma, oral, read-out: elimination half-life T½", "result": "20 to 24", "unit": "h"},
      {"measurement": "time to reach steady-state plasma concentrations", "setting": "[4]; once daily dosing", "result": "4 to 5", "unit": "days"},
      {"measurement": "plasma concentration on day 4 as share of the steady-state plasma concentration", "setting": "[4]; once daily dosing, day 4", "result": "about 90%"},
      {"measurement": "extent of accumulation", "setting": "[4]; once daily oral dosing", "result": "approximately 1.5 fold"},
      {"measurement": "5-HT4B receptor antagonism", "setting": "5-HT4B receptor", "result": "5-HT4B antagonist and found to antagonise 5HT4B receptors"},
      {"measurement": "plasma level of SB-207266", "setting": "[5]; 0.3 mg/kg i.v., n=6", "result": "137.7 ± 15.2", "unit": "ng/mL"},
      {"measurement": "plasma level of SB-207266", "setting": "[5]; 1.0 mg/kg i.v., n=5", "result": "562.3 ± 40.1", "unit": "ng/mL"}
    ]},
    {"smiles": "CCCCN1CCC(COC(=O)c2cc(I)c(N)c3c2OCCO3)CC1", "note": "[SB-207710, (1-butyl-4-piperidyl)methyl 8-amino-7-iodo-1,4-benzodioxan-5-carboxylate]", "values": [
      {"measurement": "Ki", "setting": "5-HT1A", "result": "≥ 1000", "unit": "nM"},
      {"measurement": "Bmax of radioligand", "setting": "[6]", "result": "16±3", "unit": "fmol/mg protein"},
      {"measurement": "Ki", "setting": "5-HT1C", "result": "≥ 1000", "unit": "nM"}
    ]}
  ]
}
